Assay results: patent publication US12570656B2, “Purine compounds for treating disorders” (MARVEL BIOTECHNOLOGY, priority 2020, dated 2026)
“And” between values parts separate entries of the source, which are not always exact repeats. Equal entries are not always repeated. Where two headings read alike, the source gives them in different places.

Key:
[1] = Plasma pharmacokinetics in male CD-1 mice (1 mg/kg i.v. or 3 mg/kg p.o.); conditions: CD-1, mouse, in vivo
Procedure: (§1) Male CD-1 mice were given either bolus 1 mg/kg i.v. or 3 mg/kg p.o. of the indicated compounds and plasma or brain concentrations were measured.
(§2) Where: • C0 concentration extrapolated to time zero following an i.v. dose • tmax time at which maximum concentration is observed • Cmax maximum observed concentration • Apparent t1/2 apparent terminal half-life • AUC0-tlast area under the concentration vs time curve from time 0 to the time of the last measurable concentration • AUC0-inf area under the concentration vs time curve from time 0 to infinity • CL systemic clearance • MRT0-inf mean residence time from time zero to infinity • Vss steady-state volume of distribution • F oral bioavailability=(Dose^iv*AUC^po)/(Dose^po*AUC^iv)*100

[2] = Brain pharmacokinetics and brain/plasma ratio in male CD-1 mice (1 mg/kg i.v.); format: in vivo; conditions: for concentration at 5 min / concentration at 0.25 h / concentration at 0.5 h / concentration at 1 h / concentration at 2 h / concentration at 4 h / concentration at 6 h / concentration at 8 h: intravenous
Procedure: as §1, §2

[3] = male, CD-1, mouse, iv, brain, i.v. 1 mg/kg

bioavailability [1]: 30.9% | AUC(0-inf) ([1]; iv, 1 mg/kg): 1440 ng·h/mL | AUC(0-t) ([1]; iv, 1 mg/kg): 1420 ng·h/mL | Cmax ([1]; iv, 1 mg/kg): 745 ng/mL | MRT inf ([1]; iv, 1 mg/kg): 1.96 h | Tmax ([1]; iv, 1 mg/kg): 0.25 h | Vd ([1]; iv, 1 mg/kg): 1.36 L/kg | clearance ([1]; iv, 1 mg/kg): 11.6 mL/min/kg | half-life ([1]; iv, 1 mg/kg): 1.35 h | AUC(0-inf) ([1]; po, 3 mg/kg): 1340 ng·h/mL | AUC(0-t) ([1]; po, 3 mg/kg): 1340 ng·h/mL | Cmax ([1]; po, 3 mg/kg): 250 ng/mL | MRT inf ([1]; po, 3 mg/kg): 3.82 h | Tmax ([1]; po, 3 mg/kg): 1 h | half-life ([1]; po, 3 mg/kg): 2.2 h | Brain concentration ([2]; 1 mg/kg bolus i.v., 5 min, individual animals 1-3): 423 ng/g and 691 ng/g | Brain concentration ([2]; 1 mg/kg bolus i.v., 0.25 h, individual animals 1-3): 474 ng/g and 418 ng/g | Brain concentration ([2]; 1 mg/kg bolus i.v., 0.5 h, individual animals 1-3): 230 ng/g and 235 ng/g | Brain concentration ([2]; 1 mg/kg bolus i.v., 1 h, individual animals 1-3): 209 ng/g and 237 ng/g | Brain concentration ([2]; 1 mg/kg bolus i.v., 2 h, individual animals 1-3): 180 ng/g and 156 ng/g | Brain concentration ([2]; 1 mg/kg bolus i.v., 4 h, individual animals 1-3): 76.8 ng/g and 79.5 ng/g | Brain concentration ([2]; 1 mg/kg bolus i.v., 6 h, individual animals 1-3): 50.1 ng/g and 32.6 ng/g | Brain concentration ([2]; 1 mg/kg bolus i.v., 8 h, individual animals 1-3): 22.2 ng/g and 17.1 ng/g | AUC0-tlast ([2]; brain, i.v. 1 mg/kg): 938 ng·h/g | AUC(0-inf) ([2]; brain, i.v. 1 mg/kg): 1011 ng·h/g | Kp at 5 min ([2]; male, CD-1, mouse, brain and plasma, iv, 1 mg/kg, 1 mg/kg bolus i.v., 5 min, individual animals 1-3, read-out: Brain/plasma concentration ratio): 0.726 | Kp at 5 min ([2]; male, CD-1, mouse, brain and plasma, iv, 1 mg/kg, 1 mg/kg bolus i.v., 5 min, read-out: Brain/plasma concentration ratio, Mean): 0.828 | Kp at 0.25 h ([2]; male, CD-1, mouse, brain and plasma, iv, 1 mg/kg, 1 mg/kg bolus i.v., 0.25 h, individual animals 1-3, read-out: Brain/plasma concentration ratio): 0.42 | Kp at 0.25 h ([2]; male, CD-1, mouse, brain and plasma, iv, 1 mg/kg, 1 mg/kg bolus i.v., 0.25 h, read-out: Brain/plasma concentration ratio, Mean): 0.516 | Kp at 0.5 h ([2]; male, CD-1, mouse, brain and plasma, iv, 1 mg/kg, 1 mg/kg bolus i.v., 0.5 h, read-out: Brain/plasma concentration ratio, Mean): 0.483 | Kp at 8 h ([2]; male, CD-1, mouse, brain and plasma, iv, 1 mg/kg, 1 mg/kg bolus i.v., 8 h, individual animals 1-3, read-out: Brain/plasma concentration ratio): 2.76 | Kp at 8 h ([2]; male, CD-1, mouse, brain and plasma, iv, 1 mg/kg, 1 mg/kg bolus i.v., 8 h, read-out: Brain/plasma concentration ratio, Mean): 2.25 | concentration at 5 min ([2]; male, CD-1, mouse, brain, 1 mg/kg, 1 mg/kg bolus i.v., 5 min, individual animals 1-3, read-out: Brain concentration): 545 ng/g | concentration at 5 min ([2]; male, CD-1, mouse, brain, 1 mg/kg, 1 mg/kg bolus i.v., 5 min, read-out: Brain concentration, Mean): 553 ng/g | concentration at 0.25 h ([2]; male, CD-1, mouse, brain, 1 mg/kg, 1 mg/kg bolus i.v., 0.25 h, individual animals 1-3, read-out: Brain concentration): 272 ng/g | concentration at 0.25 h ([2]; male, CD-1, mouse, brain, 1 mg/kg, 1 mg/kg bolus i.v., 0.25 h, read-out: Brain concentration, Mean): 388 ng/g | concentration at 0.5 h ([2]; male, CD-1, mouse, brain, 1 mg/kg, 1 mg/kg bolus i.v., 0.5 h, individual animals 1-3, read-out: Brain concentration): 372 ng/g | concentration at 0.5 h ([2]; male, CD-1, mouse, brain, 1 mg/kg, 1 mg/kg bolus i.v., 0.5 h, read-out: Brain concentration, Mean): 279 ng/g | concentration at 1 h ([2]; male, CD-1, mouse, brain, 1 mg/kg, 1 mg/kg bolus i.v., 1 h, individual animals 1-3, read-out: Brain concentration): 225 ng/g | concentration at 1 h ([2]; male, CD-1, mouse, brain, 1 mg/kg, 1 mg/kg bolus i.v., 1 h, read-out: Brain concentration, Mean): 224 ng/g | concentration at 2 h ([2]; male, CD-1, mouse, brain, 1 mg/kg, 1 mg/kg bolus i.v., 2 h, individual animals 1-3, read-out: Brain concentration): 171 ng/g | concentration at 2 h ([2]; male, CD-1, mouse, brain, 1 mg/kg, 1 mg/kg bolus i.v., 2 h, read-out: Brain concentration, Mean): 169 ng/g | concentration at 4 h ([2]; male, CD-1, mouse, brain, 1 mg/kg, 1 mg/kg bolus i.v., 4 h, individual animals 1-3, read-out: Brain concentration): 107 ng/g | concentration at 4 h ([2]; male, CD-1, mouse, brain, 1 mg/kg, 1 mg/kg bolus i.v., 4 h, read-out: Brain concentration, Mean): 87.8 ng/g | concentration at 6 h ([2]; male, CD-1, mouse, brain, 1 mg/kg, 1 mg/kg bolus i.v., 6 h, individual animals 1-3, read-out: Brain concentration): 39.8 ng/g | concentration at 6 h ([2]; male, CD-1, mouse, brain, 1 mg/kg, 1 mg/kg bolus i.v., 6 h, read-out: Brain concentration, Mean): 40.8 ng/g | concentration at 8 h ([2]; male, CD-1, mouse, brain, 1 mg/kg, 1 mg/kg bolus i.v., 8 h, individual animals 1-3, read-out: Brain concentration): 33.4 ng/g | concentration at 8 h ([2]; male, CD-1, mouse, brain, 1 mg/kg, 1 mg/kg bolus i.v., 8 h, read-out: Brain concentration, Mean): 24.2 ng/g | Kp at 1 h ([2]; male, CD-1, mouse, brain/plasma, iv, 1 mg/kg, 1 mg/kg bolus i.v., 1 h, individual animals 1-3, read-out: Brain/plasma concentration ratio): 0.534 | Kp at 1 h ([2]; male, CD-1, mouse, brain/plasma, iv, 1 mg/kg, 1 mg/kg bolus i.v., 1 h, read-out: Brain/plasma concentration ratio, Mean): 0.551 | Kp at 2 h ([2]; male, CD-1, mouse, brain/plasma, iv, 1 mg/kg, 1 mg/kg bolus i.v., 2 h, individual animals 1-3, read-out: Brain/plasma concentration ratio): 0.71 | Kp at 2 h ([2]; male, CD-1, mouse, brain/plasma, iv, 1 mg/kg, 1 mg/kg bolus i.v., 2 h, read-out: Brain/plasma concentration ratio, Mean): 0.655 | Kp at 4 h ([2]; male, CD-1, mouse, brain/plasma, iv, 1 mg/kg, 1 mg/kg bolus i.v., 4 h, individual animals 1-3, read-out: Brain/plasma concentration ratio): 0.87 | Kp at 4 h ([2]; male, CD-1, mouse, brain/plasma, iv, 1 mg/kg, 1 mg/kg bolus i.v., 4 h, read-out: Brain/plasma concentration ratio, Mean): 1 | Kp at 6 h ([2]; male, CD-1, mouse, brain/plasma, iv, 1 mg/kg, 1 mg/kg bolus i.v., 6 h, read-out: Brain/plasma concentration ratio, Mean): 0.96 | Kp ([2]; male, CD-1, mouse, brain/plasma, iv, 1 mg/kg, i.v. 1 mg/kg, read-out: Brain/plasma AUC0-inf ratio): 0.701 | Cmax [2, 3]: 553 ng/g | Tmax [2, 3]: 5 min | half-life ([2]; male, CD-1, mouse, iv, brain, i.v. 1 mg/kg, read-out: Apparent t1/2 (converted)): 2.1 h | MRT inf ([2]; male, CD-1, mouse, iv, brain, i.v. 1 mg/kg, read-out: MRT0-inf): 2.96 h
Compound: CCn1c(=O)c2c(nc(/C=C/c3ccc(OC)c(OC)c3)n2C)n(CC)c1=O [Istradefylline, reference compound]
